One molecule from patent US8247444B2, “Anti-tumor effect of dimeric phthalide compound” (priority 2007, dated 2012) can be followed below.

One experiment relates to MCF-7. In words: Growth inhibition of sensitive and drug-resistant cell lines (IC50), MCF-7. Format: cell-based. The note with it: Homo sapiens, MCF7; MCF-7 cells. Here is the method: In the following Examples, the cell lines used were H1299, H446 (human lung cancer cell line), KB (human oral cavity carcinoma cell line), NB4, HL-60 (human leukemic cell line), U251 ? U87MG (human glioblastoma cell line), MCF-7 (human breast carcinoma cell line), Bel-7402 and SMMC7721 (human hepatic cellular cancer cell line), SW620 (human colon carcinoma cell line), HDF (human dermis fibroblast), HUVEC (human umbilical vein endothelial cell line) and Kasumi-1 (human acute myeloid leukaemia cell line), all from American Type Culture Collection (ATCC).
The human lung cancer cell H1299 and H446, glioma cell U251 and U87MG, and human hepatic cellular cancer Bel-7402 cell in logarithmic growth phase were digested with pancreatic enzyme, and then suspended into DMEM or RPMI1640 containing 10% fetal bovine serum. The leukemic cells Kasumi-1 need no digestion, and were suspended into RPMI1640 containing 10% fetal bovine serum directly after centrifugalization. The cell density was adjusted to 1×10^4 cells/ml through cell counting, and the cell suspensions were seeded into a 96-well plate respectively, 100 μl/well, totally 6 groups of cells. The adherent cells were cultured overnight, the suspended cells were added different concentration gradients of dimeric phthalide compounds (S1-S6) directly, n=6 for each concentration of a single agent. The final volume was 200 ul, and the balance was supplemented with the culture medium. The plate was then incubated for 68 hours in 37° C., saturated humidity, 5% CO2 cell incubator. The medium was aspirated and 72 μl/well fresh culture medium was added. 8 μl […] (CCK-8) was added into each well and cultured for 2 hours. The absorbance was measured at 450 nm. The results were calculated as the 50% inhibiting drug concentration, i.e. IC50, using Sigmoidal simulation function by software Origin 7.0.
The cancer cells (various cell lines as shown in table 1 or FIG. 3) were seeded 1×10^3 cells per well into a 96-well plate. The suspended cells were added different concentration of dimeric phthalide compounds (S1-S6) directly, and the adherent cells were cultured overnight and added different concentration of dimeric phthalide compounds (S1-S6). The different concentration of dimeric phthalide compounds were divided into 10 groups: 0, 0.1, 0.5, 1, 5, 10, 20, 40, 80, 160 μg/ml, n=6 for each concentration.
According to the method described in Example 2, […] was detected and IC50 was calculated. The experiment was repeated for 3 times.
The growth inhibition effects of dimers of S1-S6 on its sensitive cell lines as well as the drug-resistant sub-strains (IC50 (μg/ml)) were shown in table 1 and FIG. 3.

Experiment [1] has as its system secretion of VEGF in H1299 cell. In words: VEGF in supernatant of tumor cell H1299 culture (VEGF-ELISA). The experiment is classed as cell-based, human. As to conditions: H1299, compound 5 μg/ml, 24 h. The protocol:
Assay of vascular endothelial cell growth factor (VEGF) in supernatant of tumor cell H1299 culture. The cell was seeded into a 24-well plate (n=3 for each sample). H1299 cell was treated with S1-S6 respectively and cultured for 24 h. The culture supernatants from each group were collected and operated according to the instruction of VEGF-ELISA kit (JIN MEI Corporation). The samples were added, incubated, washed and detected at 450 nm for OD values of each sample. The standard curve was obtained by using different dose of VEGF standards and the secretory volume of VEGF in the supernatant was calculated.
For orientation: In an ELISA, binding on a coated surface is turned into a signal by an enzyme label.

Values after ≈ are worked out from the molar mass of the structure shown.

The IC50 is the concentration needed to halve the response being measured. For orientation: inhibition means the drop in the measured response relative to a control, in per cent.

For `CCC/C=C1\OC(=O)C2=C1CCC1C2[C@@]23CC[C@@H]1C=C2C(=O)O/C3=C\CCC` (stereo partly drawn) [S4], in the experiment on MCF-7, the half-inhibitory concentration (IC50) is 18.4 ± 2.8 µg/mL (≈ 48.5 µM). In addition, in experiment [1], the “Supernatant VEGF” value amounted to 234.00 ± 34.03 ng/ml/10^6 cells. In experiment [1] (Homo sapiens, NCI-H1299, read-out: Inhibition rate of VEGF secretion), the inhibition at 5 µg/mL was 37.3%.
